According to ChEMBL document CHEMBL1136816, “Synthesis and evaluation of ether and halogenated derivatives of mannopeptimycin glycopeptide antibiotics” (2003):
Values after ≈ are worked out from the molar mass of the structure shown. One block for each compound: values may come before it.

Columns and labels:
Assay type in all cases: functional
Enterococcus sp. [1] = assay: In vitro minimum inhibitory concentration against Enterococcus species; 2-4
Streptococcus sp. [2] = assay: In vitro minimum inhibitory concentration against Streptococcus species; </=0.06-0.25
Staphylococcus aureus [3] = assay: In vitro minimum inhibitory concentration against Staphylococcus aureus; 2-4
Enterococcus sp. [4] = assay: In vitro minimum inhibitory concentration against Enterococcus species; 1-4
Streptococcus sp. [5] = assay: In vitro minimum inhibitory concentration against Streptococcus species
Staphylococcus aureus [6] = assay: In vitro minimum inhibitory concentration against Staphylococcus aureus; 1-2
Enterococcus sp. [7] = assay: In vitro minimum inhibitory concentration against Enterococcus species; 4-64
Streptococcus sp. [8] = assay: In vitro minimum inhibitory concentration against Streptococcus species; 0.5-4
Staphylococcus aureus [9] = assay: In vitro minimum inhibitory concentration against Staphylococcus aureus; 1-8
Enterococcus sp. [10] = assay: In vitro minimum inhibitory concentration against Enterococcus species; 1-2
Staphylococcus aureus [11] = assay: In vitro minimum inhibitory concentration against Staphylococcus aureus; 0.25-1
Enterococcus sp. [12] = assay: In vitro minimum inhibitory concentration against Enterococcus species; 0.25->64
Streptococcus sp. [13] = assay: In vitro minimum inhibitory concentration against Streptococcus species; </=0.06-1
Staphylococcus aureus [14] = assay: In vitro minimum inhibitory concentration against Staphylococcus aureus; 0.5->64

SMILES: C[C@@H](c1ccccc1)[C@@H]1NC(=O)CNC(=O)[C@H](CO)NC(=O)[C@@H]([C@@H](O)[C@@H]2CN=C(N)N2[C@H]2O[C@H](CO)[C@@H](O)[C@H](O)[C@@H]2O)NC(=O)[C@H]([C@@H](O)[C@@H]2CN=C(N)N2)NC(=O)[C@@H](Cc2ccc(O[C@H]3O[C@H](CO)[C@@H](O[C@H]4O[C@H](COCc5cccs5)[C@@H](O)[C@H](O)[C@@H]4O)[C@H](O)[C@@H]3O)cc2)NC1=O
MIC (Enterococcus sp. [7]): 4 µg/mL (≈ 2.87 µM) | MIC (Streptococcus sp. [8]): 0.5 µg/mL (≈ 0.359 µM) | MIC (Staphylococcus aureus [9]): 1 µg/mL (≈ 0.719 µM)

SMILES: CCN1CCN(C(=O)N[C@@H](C(=O)N[C@@H]2C(=O)N3[C@@H]2SC(C)(C)[C@@H]3C(=O)O)c2ccccc2)C(=O)C1=O [PIPERACILLIN]
MIC (Enterococcus sp. [12]): 0.25 µg/mL (≈ 0.483 µM) | MIC (Streptococcus sp. [13]): ≤ 0.06 µg/mL | MIC (Staphylococcus aureus [14]): 0.5 µg/mL (≈ 0.966 µM)

The next lines start with the values.

MIC (Enterococcus sp. [1]): 2 µg/mL (≈ 1.31 µM) | MIC (Streptococcus sp. [2]): ≤ 0.06 µg/mL | MIC (Staphylococcus aureus [3]): 2 µg/mL (≈ 1.31 µM)
SMILES: COc1ccc(COC[C@H]2O[C@H](O[C@H]3[C@H](O)[C@H](O)[C@@H](Oc4ccc(C[C@H]5NC(=O)[C@H]([C@@H](C)c6ccccc6)NC(=O)CNC(=O)[C@H](CO)NC(=O)[C@@H]([C@@H](O)[C@@H]6CN=C(N)N6[C@H]6O[C@H](CO)[C@@H](O)[C@H](O)[C@@H]6O)NC(=O)[C@H]([C@@H](O)[C@@H]6CN=C(N)N6)NC5=O)cc4)O[C@@H]3CO)[C@@H](O)[C@@H](O)[C@@H]2O)cc1OCc1ccccc1

MIC (Enterococcus sp. [4]): 1 µg/mL (≈ 0.67 µM) | MIC (Streptococcus sp. [5]): ≤ 0.06 µg/mL | MIC (Staphylococcus aureus [6]): 1 µg/mL (≈ 0.67 µM)
SMILES: C[C@@H](c1ccccc1)[C@@H]1NC(=O)CNC(=O)[C@H](CO)NC(=O)[C@@H]([C@@H](O)[C@@H]2CN=C(N)N2[C@H]2O[C@H](CO)[C@@H](O)[C@H](O)[C@@H]2O)NC(=O)[C@H]([C@@H](O)[C@@H]2CN=C(N)N2)NC(=O)[C@@H](Cc2ccc(O[C@H]3O[C@H](CO)[C@@H](O[C@H]4O[C@H](COCc5ccc(OCc6ccccc6)cc5)[C@@H](O)[C@H](O)[C@@H]4O)[C@H](O)[C@@H]3O)cc2)NC1=O

MIC (Enterococcus sp. [10]): 1 µg/mL (≈ 0.682 µM) | MIC (Streptococcus sp. [5]): ≤ 0.06 µg/mL | MIC (Staphylococcus aureus [11]): 0.25 µg/mL (≈ 0.171 µM)
SMILES: COc1ccc2cc(CO[C@H]3[C@H](O)[C@H](O)[C@@H](O[C@H]4[C@H](O)[C@H](O)[C@@H](Oc5ccc(C[C@H]6NC(=O)[C@H]([C@@H](C)c7ccccc7)NC(=O)CNC(=O)[C@H](CO)NC(=O)[C@@H]([C@@H](O)[C@@H]7CN=C(N)N7[C@H]7O[C@H](CO)[C@@H](O)[C@H](O)[C@@H]7O)NC(=O)[C@H]([C@@H](O)[C@@H]7CN=C(N)N7)NC6=O)cc5)O[C@@H]4CO)O[C@@H]3CO)ccc2c1
